From US4621094A, “Anti-histaminic pyridyl compounds” (priority 1984, dated 1986)

Biological target: T1, H1 histamine receptor (Cavia porcellus, UniProt P31389)
T1 construct: The longitudinal muscle was isolated from the intact ileum of guinea pigs; from tissue; host or cells: ileum longitudinal muscle, guinea pig (Hartley, male 250-400 g)
Experiment: Antihistaminic activity: antagonism of histamine concentration-response curves in isolated guinea pig ileum longitudinal muscle (Schild plot)
Type: cell-based, guinea pigs
Details: negative log of molar antagonist concentration shifting the control histamine concentration-response curve 2X to the right; tissue incubated one hour with test compound; organ bath, 300 mg tension; read-out: pA2 (converted)
Experimental: The longitudinal muscle was isolated from the intact ileum of guinea pigs (Hartley, male 250-400 g) and placed in an organ bath under 300 mg tension. After one hour of equilibration, cumulative concentration-response curves (Van Rossum, J. M., Arch. Int. Pharmacodyn. Ther. 143, 299-330, 1963) to histamine were obtained. Following washing, the tissues were incubated for one hour with the test compound and then a second histamine concentration-response curve was run. Shifts to the right of the agonist concentration-response curve produced by the antagonists were used to construct Schild plots (Arunlakshana, O. And Schild, H. O., Br. J. Pharmacol: 14, 48-58, 1959 ). Regression of Log (dr-1) on Log [B], where dr is an equiactive response in the presence and absence of antagonist and [B] is the molar concentration of antagonist, allowed an estimate of pA2, i.e. the negative log of the concentration of antagonist which shifts the control histamine concentration-response curve 2X to the right.

T1 sequence (P31389 whole entry): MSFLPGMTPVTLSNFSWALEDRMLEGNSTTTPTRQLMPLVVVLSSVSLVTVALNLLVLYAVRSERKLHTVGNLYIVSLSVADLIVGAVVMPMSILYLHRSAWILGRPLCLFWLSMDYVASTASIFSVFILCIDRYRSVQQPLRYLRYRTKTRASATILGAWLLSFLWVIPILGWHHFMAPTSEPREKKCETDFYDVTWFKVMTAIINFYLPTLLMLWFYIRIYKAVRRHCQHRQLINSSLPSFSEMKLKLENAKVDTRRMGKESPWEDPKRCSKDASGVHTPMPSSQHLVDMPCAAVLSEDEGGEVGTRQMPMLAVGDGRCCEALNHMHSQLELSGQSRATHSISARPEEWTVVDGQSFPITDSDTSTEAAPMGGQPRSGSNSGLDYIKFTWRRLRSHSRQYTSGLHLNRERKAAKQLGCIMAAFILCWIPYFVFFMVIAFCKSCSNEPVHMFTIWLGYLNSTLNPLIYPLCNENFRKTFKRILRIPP

## CN(C)CCC(c1ccc(Cl)cc1)c1cccc(/C=C/C(=O)O)n1 (stereo not shown) [(E)-6-(1-(4-chlorophenyl)-3-dimethylaminopropyl)-2-pyridyl acrylic acid]
  Kb: 2 µM
